Bounds are passed on as bounds.

The target of the experiment is T1, PIP4K2C (Homo sapiens, UniProt Q8TBX8).
T1 sequence (Q8TBX8 1-421): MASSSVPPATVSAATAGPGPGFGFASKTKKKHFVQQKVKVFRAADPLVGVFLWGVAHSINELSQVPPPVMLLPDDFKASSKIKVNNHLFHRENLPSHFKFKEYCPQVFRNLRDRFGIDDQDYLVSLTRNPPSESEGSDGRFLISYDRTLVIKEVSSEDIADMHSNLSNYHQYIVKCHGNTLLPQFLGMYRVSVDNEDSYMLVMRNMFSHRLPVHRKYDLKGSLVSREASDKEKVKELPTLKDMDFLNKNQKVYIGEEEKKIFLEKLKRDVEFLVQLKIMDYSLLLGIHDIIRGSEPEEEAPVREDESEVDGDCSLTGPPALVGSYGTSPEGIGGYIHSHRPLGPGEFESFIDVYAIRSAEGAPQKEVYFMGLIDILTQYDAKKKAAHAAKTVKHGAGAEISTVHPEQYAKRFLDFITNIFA
In words: Enzyme Binding Assay (KINOMEscan): active site-directed competition binding to an immobilized ligand. Further details: purchased Eurofins DiscoverX, San Diego, CA 87-0007-1094. The note with it: 11-point dose response, duplicate, top concentration 5 micromolar; read-out: Pip4k2c Kd: IC50. In a few lines:
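IC50 values come from Hill-equation fits (Levenberg-Marquardt) to 11-point duplicate titrations starting at 5 micromolar. Read-out is competition of compound with an immobilized ligand for the kinase active site.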
As a reminder, the IC50 is the concentration that inhibits the measured activity by half. In the case of `CC(=O)N[C@H]1CC[C@@H](Nc2ncc(Cl)c(-c3cccc(-c4ccc[nH]c4=O)c3)n2)CC1` [Compound 153, cis-N-((1s,4s)-4-((5-chloro-4-(3-(2-oxo-1,2-dihydropyridin-3-yl)phenyl)pyrimidin-2-yl)amino)cyclohexyl)acetamide], the IC50 is under 500 nM.

For the compound `NC(=O)[C@@H]1CCC[C@H](Nc2ncc(F)c(-c3ccn(C4CCCCC4)n3)n2)C1` (relative stereo) [Compound 113, cis-3-((4-(1-cyclohexyl-1H-pyrazol-3-yl)-5-fluoropyrimidin-2-yl)amino)cyclohexane-1-carboxamide], the IC50 fell in the range of 1000 to 5000 nM. In the case of `CC(=O)N1CCC[C@H](Nc2ncc(Cl)c(-c3cc(C4CC4)[nH]n3)n2)C1` [Compound 192, (S)-1-(3-((5-chloro-4-(5-cyclopropyl-1H-pyrazol-3-yl)pyrimidin-2-yl)amino)piperidin-1-yl)ethan-1-one], the IC50 was under 500 nM. For `CC(=O)N1CCC(Nc2ncc(Cl)c(C3CCN(C(=O)c4ccc(F)cc4)C3)n2)CC1` (stereo not shown) [Compound 127, 1-(4-((5-chloro-4-(1-(4-fluorobenzoyl)pyrrolidin-3-yl)pyrimidin-2-yl)amino)piperidin-1-yl)ethan-1-one], the IC50 fell in the range of 500 to 1000 nM. The figure for `CNC(=O)[C@H]1C[C@H](Nc2ncc(Cl)c(-c3cccc(-c4ccc(F)cc4)n3)n2)C1` [Compound 140, trans-(1r,3r)-3-((5-chloro-4-(6-(4-fluorophenyl)pyridin-2-yl)pyrimidin-2-yl)amino)-N-methylcyclobutane-1-carboxamide] is under 500 nM; for `NC(=O)[C@@H]1CC[C@H](Nc2ncc(F)c(-c3cccc(-c4ccc[nH]c4=O)c3)n2)C1` [Compound 223, (1R,3S)-3-((5-fluoro-4-(3-(2-oxo-1,2-dihydropyridin-3-yl)phenyl)pyrimidin-2-yl)amino)cyclopentane-1-carboxamide] it is under 500 nM; for `CC(=O)N[C@H]1CC[C@H](Nc2ncc(Cl)c(-c3cccc(-n4ccccc4=O)c3)n2)CC1` [Compound 102, trans-N-((1r,4r)-4-((5-chloro-4-(3-(2-oxopyridin-1 (2H)-yl)phenyl)pyrimidin-2-yl)amino)cyclohexyl)acetamide] it is under 500 nM. Regarding `NC(=O)[C@H]1CCC[C@@H](Nc2ncc(F)c(-c3cccc(-c4cc[nH]c(=O)c4)c3)n2)C1` (relative stereo) [Compound 200, cis-3-((5-fluoro-4-(3-(2-oxo-1,2-dihydropyridin-4-yl)phenyl)pyrimidin-2-yl)amino)cyclohexane-1-carboxamide], the IC50 is under 500 nM.

For the compound `CNC(=O)[C@H]1C[C@H](Nc2ncc(Cl)c(-c3cc(C4CC4)[nH]n3)n2)C1` [Compound 162, trans-(1r,3r)-3-((5-chloro-4-(5-cyclopropyl-1H-pyrazol-3-yl)pyrimidin-2-yl)amino)-N-methylcyclobutane-1-carboxamide], the IC50 was under 500 nM. Take `NC(=O)[C@H]1CC[C@H](Nc2ncc(F)c(-c3cccc(-n4cc(C(F)(F)F)ccc4=O)c3)n2)CC1` [Compound 246, trans-4-((5-fluoro-4-(3-(2-oxo-5-(trifluoromethyl)pyridin-1 (2H)-yl)phenyl)pyrimidin-2-yl)amino)cyclohexane-1-carboxamide]: the IC50 is under 500 nM.

The values above are taken from patent US20260355196A1, “INHIBITORS AND DEGRADERS OF PIP4K PROTEIN” (Larkspur Biosciences, Inc., priority 2023, published 2026).
